Assay results as given in the supplement of paper PMC10307832.

Columns and labels:
Experiment in all cases: relative viability (nuclei count vs DMSO), 5 days (fraction); higher = more cells survive
VX-11e = compound: CC1=CN=C(N=C1C2=CNC(=C2)C(=O)N[C@H](CO)C3=CC(=CC=C3)Cl)NC4=C(C=C(C=C4)F)Cl [VX-11e]
Summary of the method: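 Cells of lung cancer lines were placed in 1536-well plates and kept overnight at 37 °C. Pinning then delivered five library-drug doses (not always all listed), spaced by √10, onto plates anchored with vehicle, and the cells were left 5 days without changing medium. One step fixed, permeabilised and stained them with Hoechst, and MetaXpress counted nuclei in 4× images. Viability, as a median over plates, is treated-well nuclei divided by vehicle-well nuclei, with acceptance only at control CV below 25% and at least one doubling.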

VX-11e + Olaparib = compound: CC1=CN=C(N=C1C2=CNC(=C2)C(=O)N[C@H](CO)C3=CC(=CC=C3)Cl)NC4=C(C=C(C=C4)F)Cl [VX-11e] + O=C(c1cc(Cc2n[nH]c(=O)c3ccccc23)ccc1F)N1CCN(C(=O)C2CC2)CC1 [Olaparib] (partner 8 µM)
Summary of the method: (§1)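 After 5 days of treatment, lung cancer cells in 1536-well plates were fixed and stained in a single step (final 0.05% Triton X-100, 1% formaldehyde, 1 ug/ml Hoechst) and their nuclei counted on 4× images. Treatment had been applied by pin tool the day after seeding as one drug alone or as a fixed anchor-drug dose with five library-drug doses (not always all listed) in √10 steps. Relative viability is the nuclei count of treated wells divided by that of vehicle wells, and values are medians of duplicate plates.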

VX-11e + Lapatinib = compound: CC1=CN=C(N=C1C2=CNC(=C2)C(=O)N[C@H](CO)C3=CC(=CC=C3)Cl)NC4=C(C=C(C=C4)F)Cl [VX-11e] + CS(=O)(=O)CCNCc1ccc(-c2ccc3ncnc(Nc4ccc(OCc5cccc(F)c5)c(Cl)c4)c3c2)o1 [Lapatinib] (partner 2 µM)
Summary of the method: as §1

VX-11e + Foretinib = compound: CC1=CN=C(N=C1C2=CNC(=C2)C(=O)N[C@H](CO)C3=CC(=CC=C3)Cl)NC4=C(C=C(C=C4)F)Cl [VX-11e] + COc1cc2c(Oc3ccc(NC(=O)C4(C(=O)Nc5ccc(F)cc5)CC4)cc3F)ccnc2cc1OCCCN1CCOCC1 [Foretinib] (partner 0.25 µM)
Summary of the method: as §1

VX-11e + Crizotinib = compound: CC1=CN=C(N=C1C2=CNC(=C2)C(=O)N[C@H](CO)C3=CC(=CC=C3)Cl)NC4=C(C=C(C=C4)F)Cl [VX-11e] + C[C@@H](Oc1cc(-c2cnn(C3CCNCC3)c2)cnc1N)c1c(Cl)ccc(F)c1Cl [Crizotinib] (partner 1 µM)
Summary of the method: as §1

VX-11e + Phenformin = compound: CC1=CN=C(N=C1C2=CNC(=C2)C(=O)N[C@H](CO)C3=CC(=CC=C3)Cl)NC4=C(C=C(C=C4)F)Cl [VX-11e] + N=C(N)NC(=N)NCCc1ccccc1 [Phenformin] (partner 250 µM)
Summary of the method: as §1

VX-11e + Navitoclax = compound: CC1=CN=C(N=C1C2=CNC(=C2)C(=O)N[C@H](CO)C3=CC(=CC=C3)Cl)NC4=C(C=C(C=C4)F)Cl [VX-11e] + CC1(C)CCC(c2ccc(Cl)cc2)=C(CN2CCN(c3ccc(C(=O)NS(=O)(=O)c4ccc(N[C@H](CCN5CCOCC5)CSc5ccccc5)c(S(=O)(=O)C(F)(F)F)c4)cc3)CC2)C1 [Navitoclax] (partner 0.5 µM)
Summary of the method: as §1

VX-11e + Linsitinib = compound: CC1=CN=C(N=C1C2=CNC(=C2)C(=O)N[C@H](CO)C3=CC(=CC=C3)Cl)NC4=C(C=C(C=C4)F)Cl [VX-11e] + C[C@]1(O)C[C@@H](c2nc(-c3ccc4ccc(-c5ccccc5)nc4c3)c3c(N)nccn32)C1 [Linsitinib] (partner 1 µM)
Summary of the method: as §1

VX-11e + Decitabine = compound: CC1=CN=C(N=C1C2=CNC(=C2)C(=O)N[C@H](CO)C3=CC(=CC=C3)Cl)NC4=C(C=C(C=C4)F)Cl [VX-11e] + Nc1ncn([C@H]2C[C@H](O)[C@@H](CO)O2)c(=O)n1 [Decitabine] (partner 2 µM)
Summary of the method: as §1

VX-11e + Alpelisib = compound: CC1=CN=C(N=C1C2=CNC(=C2)C(=O)N[C@H](CO)C3=CC(=CC=C3)Cl)NC4=C(C=C(C=C4)F)Cl [VX-11e] + Cc1nc(NC(=O)N2CCC[C@H]2C(N)=O)sc1-c1ccnc(C(C)(C)C(F)(F)F)c1 [Alpelisib] (partner 2 µM)
Summary of the method: as §1

VX-11e + Pictilisib = compound: CC1=CN=C(N=C1C2=CNC(=C2)C(=O)N[C@H](CO)C3=CC(=CC=C3)Cl)NC4=C(C=C(C=C4)F)Cl [VX-11e] + CS(=O)(=O)N1CCN(Cc2cc3nc(-c4cccc5[nH]ncc45)nc(N4CCOCC4)c3s2)CC1 [Pictilisib] (partner 1 µM)
Summary of the method: as §1

VX-11e + Tozasertib = compound: CC1=CN=C(N=C1C2=CNC(=C2)C(=O)N[C@H](CO)C3=CC(=CC=C3)Cl)NC4=C(C=C(C=C4)F)Cl [VX-11e] + Cc1cc(Nc2cc(N3CCN(C)CC3)nc(Sc3ccc(NC(=O)C4CC4)cc3)n2)n[nH]1 [Tozasertib] (partner 0.1 µM)
Summary of the method: as §1

VX-11e + Luminespib = compound: CC1=CN=C(N=C1C2=CNC(=C2)C(=O)N[C@H](CO)C3=CC(=CC=C3)Cl)NC4=C(C=C(C=C4)F)Cl [VX-11e] + CCNC(=O)c1noc(-c2cc(C(C)C)c(O)cc2O)c1-c1ccc(CN2CCOCC2)cc1 [Luminespib] (partner 0.01 µM)
Summary of the method: as §1

VX-11e + OSI-027 = compound: CC1=CN=C(N=C1C2=CNC(=C2)C(=O)N[C@H](CO)C3=CC(=CC=C3)Cl)NC4=C(C=C(C=C4)F)Cl [VX-11e] + COc1cccc2cc(-c3nc([C@H]4CC[C@H](C(=O)O)CC4)n4ncnc(N)c34)[nH]c12 [OSI-027] (partner 0.5 µM)
Summary of the method: as §1

VX-11e + Dasatinib = compound: CC1=CN=C(N=C1C2=CNC(=C2)C(=O)N[C@H](CO)C3=CC(=CC=C3)Cl)NC4=C(C=C(C=C4)F)Cl [VX-11e] + Cc1nc(Nc2ncc(C(=O)Nc3c(C)cccc3Cl)s2)cc(N2CCN(CCO)CC2)n1 [Dasatinib] (partner 0.075 µM)
Summary of the method: as §1

Cell Line: A549
- relative viability (VX-11e; 0.04 µM): 0.98
- relative viability (VX-11e; 0.1265 µM): 0.868
- relative viability (VX-11e; 0.4 µM): 0.806
- relative viability (VX-11e; 1.265 µM): 0.671
- relative viability (VX-11e; 4 µM): 0.122
- relative viability (VX-11e + Olaparib; first compound 0.04 µM): 0.237
- relative viability (VX-11e + Olaparib; first compound 0.1265 µM): 0.246
- relative viability (VX-11e + Olaparib; first compound 0.4 µM): 0.0406
- relative viability (VX-11e + Olaparib; first compound 1.265 µM): 0.184
- relative viability (VX-11e + Olaparib; first compound 4 µM): 0.0866
- relative viability (VX-11e + Lapatinib; first compound 0.04 µM): 0.898
- relative viability (VX-11e + Lapatinib; first compound 0.1265 µM): 0.903
- relative viability (VX-11e + Lapatinib; first compound 0.4 µM): 0.832
- relative viability (VX-11e + Lapatinib; first compound 1.265 µM): 0.211
- relative viability (VX-11e + Lapatinib; first compound 4 µM): 0.135
- relative viability (VX-11e + Foretinib; first compound 0.04 µM): 1.02
- relative viability (VX-11e + Foretinib; first compound 0.1265 µM): 0.973
- relative viability (VX-11e + Foretinib; first compound 0.4 µM): 0.922
- relative viability (VX-11e + Foretinib; first compound 1.265 µM): 0.321
- relative viability (VX-11e + Foretinib; first compound 4 µM): 0.0913
- relative viability (VX-11e + Crizotinib; first compound 0.04 µM): 0.826
- relative viability (VX-11e + Crizotinib; first compound 0.1265 µM): 0.786
- relative viability (VX-11e + Crizotinib; first compound 0.4 µM): 0.601
- relative viability (VX-11e + Crizotinib; first compound 1.265 µM): 0.207
- relative viability (VX-11e + Crizotinib; first compound 4 µM): 0.0915
- relative viability (VX-11e + Phenformin; first compound 0.04 µM): 0.151
- relative viability (VX-11e + Phenformin; first compound 0.1265 µM): 0.155
- relative viability (VX-11e + Phenformin; first compound 0.4 µM): 0.0307
- relative viability (VX-11e + Phenformin; first compound 1.265 µM): 0.279
- relative viability (VX-11e + Phenformin; first compound 4 µM): 0.0557
- relative viability (VX-11e + Navitoclax; first compound 0.04 µM): 1.22
- relative viability (VX-11e + Navitoclax; first compound 0.1265 µM): 1.11
- relative viability (VX-11e + Navitoclax; first compound 0.4 µM): 0.984
- relative viability (VX-11e + Navitoclax; first compound 1.265 µM): 0.257
- relative viability (VX-11e + Navitoclax; first compound 4 µM): 0.111
- relative viability (VX-11e + Linsitinib; first compound 0.04 µM): 0.548
- relative viability (VX-11e + Linsitinib; first compound 0.1265 µM): 0.485
- relative viability (VX-11e + Linsitinib; first compound 0.4 µM): 0.448
- relative viability (VX-11e + Linsitinib; first compound 1.265 µM): 0.31
- relative viability (VX-11e + Linsitinib; first compound 4 µM): 0.169
- relative viability (VX-11e + Decitabine; first compound 0.1265 µM): 0.264
- relative viability (VX-11e + Decitabine; first compound 0.4 µM): 0.0929
- relative viability (VX-11e + Decitabine; first compound 1.265 µM): 0.249
- relative viability (VX-11e + Decitabine; first compound 4 µM): 0.202
- relative viability (VX-11e + Alpelisib; first compound 0.04 µM): 0.737
- relative viability (VX-11e + Alpelisib; first compound 0.1265 µM): 0.622
- relative viability (VX-11e + Alpelisib; first compound 0.4 µM): 0.451
- relative viability (VX-11e + Alpelisib; first compound 1.265 µM): 0.313
- relative viability (VX-11e + Alpelisib; first compound 4 µM): 0.0519
- relative viability (VX-11e + Pictilisib; first compound 0.04 µM): 0.481
- relative viability (VX-11e + Pictilisib; first compound 0.1265 µM): 0.475
- relative viability (VX-11e + Pictilisib; first compound 0.4 µM): 0.316
- relative viability (VX-11e + Pictilisib; first compound 1.265 µM): 0.0889
- relative viability (VX-11e + Pictilisib; first compound 4 µM): 0.0408

Cell Line: NCI-H1623
- relative viability (VX-11e; 0.04 µM): 0.967
- relative viability (VX-11e; 0.1265 µM): 1.04
- relative viability (VX-11e; 0.4 µM): 0.724
- relative viability (VX-11e; 1.265 µM): 0.678
- relative viability (VX-11e; 4 µM): 0.561
- relative viability (VX-11e + Tozasertib; first compound 0.04 µM): 0.396
- relative viability (VX-11e + Tozasertib; first compound 0.1265 µM): 0.426
- relative viability (VX-11e + Tozasertib; first compound 0.4 µM): 0.418
- relative viability (VX-11e + Tozasertib; first compound 1.265 µM): 0.38
- relative viability (VX-11e + Tozasertib; first compound 4 µM): 0.23
- relative viability (VX-11e + Luminespib; first compound 0.04 µM): 0.434
- relative viability (VX-11e + Luminespib; first compound 0.1265 µM): 0.492
- relative viability (VX-11e + Luminespib; first compound 0.4 µM): 0.3
- relative viability (VX-11e + Luminespib; first compound 1.265 µM): 0.48
- relative viability (VX-11e + Luminespib; first compound 4 µM): 0.337
- relative viability (VX-11e + OSI-027; first compound 0.04 µM): 0.43
- relative viability (VX-11e + OSI-027; first compound 0.1265 µM): 0.446
- relative viability (VX-11e + OSI-027; first compound 0.4 µM): 0.423
- relative viability (VX-11e + OSI-027; first compound 1.265 µM): 0.307
- relative viability (VX-11e + OSI-027; first compound 4 µM): 0.278
- relative viability (VX-11e + Foretinib; first compound 0.04 µM): 0.856
- relative viability (VX-11e + Foretinib; first compound 0.1265 µM): 0.934
- relative viability (VX-11e + Foretinib; first compound 0.4 µM): 0.588
- relative viability (VX-11e + Foretinib; first compound 1.265 µM): 0.619
- relative viability (VX-11e + Foretinib; first compound 4 µM): 0.473
- relative viability (VX-11e + Phenformin; first compound 0.04 µM): 0.53
- relative viability (VX-11e + Phenformin; first compound 0.1265 µM): 0.623
- relative viability (VX-11e + Phenformin; first compound 0.4 µM): 0.433
- relative viability (VX-11e + Phenformin; first compound 1.265 µM): 0.546
- relative viability (VX-11e + Phenformin; first compound 4 µM): 0.409
- relative viability (VX-11e + Dasatinib; first compound 0.04 µM): 0.526
- relative viability (VX-11e + Dasatinib; first compound 0.1265 µM): 0.624
- relative viability (VX-11e + Dasatinib; first compound 0.4 µM): 0.369
- relative viability (VX-11e + Dasatinib; first compound 1.265 µM): 0.457
- relative viability (VX-11e + Dasatinib; first compound 4 µM): 0.398
